According to patent publication US11622955B2, “Sigma-1 receptor agonist systolic blood pressure therapy” (ANAVEX LIFE SCIENCES CORP., priority 2017, dated 2023):
Where a name gives a salt, the structure may show the parent alone.

Assays:
[1] = Example 3: trough systolic blood pressure, combination with a thiazine diuretic; assay type: in vivo, human; conditions: person
Protocol: Effect of 10 mg Once Daily Dosage A2-73 Combination Treatment with a Thiazine Diuretic.
The subject continues on the chlorothalidone and is started on oral A2-73 at a daily dosage of 10 mg/day for a period of 25 days. Their trough systolic blood pressure is then measured at 135 mg Hg and maintained indefinitely with the combined chlorothalidone and daily oral dose of 10 mg of A2-73.

[2] = Example 2: maximum diurnal systolic blood pressure, combination with a β1-selective agent; assay type: in vivo, human; conditions: person
Source text: “Maximum diurnal” systolic or diastolic BP is a measure of highest systolic or diastolic blood pressure recorded in a 24-hour period. Without being bound by any particular theory, it is believed that a maximal diurnal BP reflects the peak of the natural diurnal blood pressure cycle, typically occurring in the morning, for example between about 5 am and about 11 am. Commonly, a second peak occurs in the evening, for example between about 5 pm and 10 pm. Such a bimodal waveform diurnal ambulatory BP pattern may be especially characteristic of resistant hypertension.
Effect of 50 mg Once Daily Dosage A2-73 Combination Treatment with a β1-Selective Agent.
The subject continues on the metoprolol tartrate, and is started on oral A2-73 at a daily dosage of 50 mg/day for a period of 25 days. Their maximum diurnal systolic blood pressure is then measured at 135 mg Hg and maintained indefinitely with the combined metoprolol tartrate and daily oral dose of 50 mg of A2-73.

[3] = cited from earlier work
[4] = Phase IIa clinical trial in Alzheimer's disease patients, post-hoc evaluation of systolic blood pressure; assay type: in vivo, human
Protocol: FIG. 1 is a graph of systolic blood pressure readings of 32 human patients of both sexes, across multiple visits, adjusted for time of BP measurement, gender, age, body mass index, and previous or concurrent use of antihypertensive medication.
BPs were measured at four time points during the study period: 1) the day of screening for enrollment, 2) day one of treatment with either oral or intravenous medication (BP measurements were obtained prior to medication administration), 3) day 25 of treatment (when patients crossed over to receive whichever formulation, oral or intravenous, they had not received previously), and 4) day 36 (conclusion of the PART A of the Phase IIa study). Statistical analyses included paired t-testing comparing changes in BPs across each measurement, as well as multivariable linear mixed effects modeling (adjusted for time of measurement, gender, age, body mass index, and use of antihypertensive medication) to account for within-individual repeated measurements over time.
Thirty-two Alzheimer's disease patients took part in the phase IIa trial. Mean age was 69.5 (standard deviation [SD] 9.8) years, 60% were male, mean body mass index was 26.5 (SD 3.9) kg/m2, and 50% were on antihypertensive medication at the time of screening. […] In multivariable adjusted models (FIG. 1), there was no significant difference in SBP between the first and second readings (p=0.211). […] Of note, no patients reported any changes in their antihypertensive regimen while taking part in the trial.

[5] = Example 1: 24-hour ambulatory systolic blood pressure in a patient with high SBP; assay type: in vivo, human; conditions: person
Protocol: Another measure of blood pressure is “24-hour ambulatory” blood pressure. A “24-hour ambulatory” systolic or diastolic BP is an average of systolic or diastolic measurements taken repeatedly in the course of a 24-hour period, in an ambulatory subject.
Effect of 5 mg and 30 mg Once Daily dosage A2-73.
The dose of A2-73 is then increased so that the subject is administered A2-73 daily, at a dosage of 30 mg/day for a period of 25 days. His 24-hour ambulatory systolic blood pressure is then measured at 135 mg Hg and maintained indefinitely with the daily oral dose of 30 mg of A2-73.

[6] = single oral dose, healthy male volunteers

SMILES: NS(=O)(=O)c1cc(C2(O)NC(=O)c3ccccc32)ccc1Cl (racemic) [chlorothalidone, (RS)-2-Chloro-5-(1-hydroxy-3-oxo-2,3-dihydro-1H-isoindol-1-yl)benzene-1-sulfonamide, reference compound]
- trough systolic blood pressure ([1]; chlorothalidone 25 mg orally once a day, before A2-73): 150 mg Hg

SMILES: COCCc1ccc(OCC(O)CNC(C)C)cc1 (racemic) [metoprolol tartrate, (RS)-1-[4-(2-Methoxyethyl)phenoxy]-3-[(propan-2-yl)amino]propan-2-ol, reference compound]
- maximum diurnal systolic blood pressure ([2]; metoprolol tartrate 50 mg twice daily, before A2-73): 150 mg Hg

SMILES: CN(C)CC1CCOC1(c1ccccc1)c1ccccc1.Cl (centres unmarked) [A2-73, tetrahydro-N,N-dimethyl-2,2-diphenyl-3-furanmethanamine hydrochloride]
- observed adverse events ([3]; at the highest doses): moderate and reversible dizziness and headache
- blood pressure, resting heart rate, vital signs and 12-lead ECG changes ([3]; in vivo, po): did not show any clinically relevant or dose-dependent changes
- pharmacokinetics ([3]; in vivo, po): suitable for daily oral dosing
- serious adverse events ([3]; single ascending oral dose, 22 healthy male volunteers): No serious adverse events occurred
- maximum tolerable dose [3, 6]: 55 mg
- minimum intolerable dose [3, 6]: 60 mg
- safety and tolerability of ascending single oral doses ([3]; single oral doses of 1, 10, 30, 40, 50 and 55 mg, healthy subjects): safe and well tolerated
- maximum diurnal systolic blood pressure ([2]; oral A2-73 50 mg/day for 25 days, combined with continued metoprolol tartrate 50 mg twice daily): 135 mg Hg
- tolerability in human patients ([4]; Phase I and Phase IIa clinical trials): well tolerated
- change in SBP, first reading vs other subsequent readings (day 25, day 36) ([4]; multivariable adjusted models (FIG. 1), p=0.048 and 0.008): significant decline in SBP
- change in SBP, second measurement (day one, pre-dose) vs all subsequent measurements ([4]; unadjusted analyses, p=0.120 and 0.972 (day 25, day 36)): no significant decline
- change in SBP, first measurement vs all subsequent measurements ([4]; unadjusted analyses, paired t-test, p=0.007, 0.001 and 0.007, 32 Alzheimer's disease patients, oral or intravenous): significant decline in SBP
- trough systolic blood pressure ([1]; oral A2-73 10 mg/day for 25 days, combined with continued chlorothalidone 25 mg once a day): 135 mg Hg
- 24-hour ambulatory systolic blood pressure ([5]; 5 mg A2-73 orally once a day): 150 mg Hg
- 24-hour ambulatory systolic blood pressure ([5]; A2-73 30 mg/day oral for 25 days): 135 mg Hg
